Legend:
[1] = test system: Human Umbilical Vein Endothelial Cell (HUVEC); experiment: Inhibitory effect on growth of human umbilical vein endothelial cell (HUVEC), MTS; format: cell-based; conditions: 10 ng/ml VEGF, absorbance 490 nm
VEGFR2 (KDR) = VEGFR2 (KDR) (Homo sapiens (Human), UniProt P35968); experiment: VEGFR2 (KDR) enzyme assay, fluorescence polarization; format: biochemical; conditions: 5 μM ATP, poly(Glu, Tyr) substrate
Outline: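 Buffer: 20 mM HEPES pH 7.4 with 5 mM MgCl2, 2 mM MnCl2 and 50 μM Na3VO4. Compound (0.0001–10 μM) was premixed 10 min with VEGFR2 (200 ng/10 μl), then poly(Glu,Tyr) substrate (10 ng/ml) and 5 μM ATP were added for 1 h at room temperature. EDTA-quenched samples were read by FP after 30 min with antibody and tracer.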

EGFR1 (HER-1) = EGFR1 (HER-1) (Homo sapiens (Human), UniProt P00533); experiment: EGFR1 (HER-1) enzyme assay, fluorescence polarization; format: biochemical; conditions: 100 μM ATP, poly(Glu, Tyr) substrate
[2] = test system: skin cancer cell line, A431; experiment: Inhibitory effect on growth of cancer cell line A431, SRB; format: cell-based; conditions: overexpressed EGFR1 (HER-1)
Outline: (§1)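 Growth inhibition was measured by sulforhodamine-B staining (absorbance 570 nm) of TCA-fixed cells after 72 h compound exposure at 37 °C, 5% CO2. Test concentrations ran from 10 μM in 10-fold steps to 10^−4, with DMSO below 1%, in 10% FBS DMEM.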

[3] = test system: breast cancer cell line, SK-Br3; experiment: Inhibitory effect on growth of cancer cell line SK-Br3, SRB; format: cell-based; conditions: overexpressed EGFR2 (HER-2)
Outline: as §1

[4] = test system: colon and rectal cancer cell line, SW-620; experiment: Inhibitory effect on growth of cancer cell line SW-620, SRB; format: cell-based; conditions: not having overexpressed EGFR and EGFR2
Outline: as §1

VEGFR2 (KDR), sequence (P35968 20-1356): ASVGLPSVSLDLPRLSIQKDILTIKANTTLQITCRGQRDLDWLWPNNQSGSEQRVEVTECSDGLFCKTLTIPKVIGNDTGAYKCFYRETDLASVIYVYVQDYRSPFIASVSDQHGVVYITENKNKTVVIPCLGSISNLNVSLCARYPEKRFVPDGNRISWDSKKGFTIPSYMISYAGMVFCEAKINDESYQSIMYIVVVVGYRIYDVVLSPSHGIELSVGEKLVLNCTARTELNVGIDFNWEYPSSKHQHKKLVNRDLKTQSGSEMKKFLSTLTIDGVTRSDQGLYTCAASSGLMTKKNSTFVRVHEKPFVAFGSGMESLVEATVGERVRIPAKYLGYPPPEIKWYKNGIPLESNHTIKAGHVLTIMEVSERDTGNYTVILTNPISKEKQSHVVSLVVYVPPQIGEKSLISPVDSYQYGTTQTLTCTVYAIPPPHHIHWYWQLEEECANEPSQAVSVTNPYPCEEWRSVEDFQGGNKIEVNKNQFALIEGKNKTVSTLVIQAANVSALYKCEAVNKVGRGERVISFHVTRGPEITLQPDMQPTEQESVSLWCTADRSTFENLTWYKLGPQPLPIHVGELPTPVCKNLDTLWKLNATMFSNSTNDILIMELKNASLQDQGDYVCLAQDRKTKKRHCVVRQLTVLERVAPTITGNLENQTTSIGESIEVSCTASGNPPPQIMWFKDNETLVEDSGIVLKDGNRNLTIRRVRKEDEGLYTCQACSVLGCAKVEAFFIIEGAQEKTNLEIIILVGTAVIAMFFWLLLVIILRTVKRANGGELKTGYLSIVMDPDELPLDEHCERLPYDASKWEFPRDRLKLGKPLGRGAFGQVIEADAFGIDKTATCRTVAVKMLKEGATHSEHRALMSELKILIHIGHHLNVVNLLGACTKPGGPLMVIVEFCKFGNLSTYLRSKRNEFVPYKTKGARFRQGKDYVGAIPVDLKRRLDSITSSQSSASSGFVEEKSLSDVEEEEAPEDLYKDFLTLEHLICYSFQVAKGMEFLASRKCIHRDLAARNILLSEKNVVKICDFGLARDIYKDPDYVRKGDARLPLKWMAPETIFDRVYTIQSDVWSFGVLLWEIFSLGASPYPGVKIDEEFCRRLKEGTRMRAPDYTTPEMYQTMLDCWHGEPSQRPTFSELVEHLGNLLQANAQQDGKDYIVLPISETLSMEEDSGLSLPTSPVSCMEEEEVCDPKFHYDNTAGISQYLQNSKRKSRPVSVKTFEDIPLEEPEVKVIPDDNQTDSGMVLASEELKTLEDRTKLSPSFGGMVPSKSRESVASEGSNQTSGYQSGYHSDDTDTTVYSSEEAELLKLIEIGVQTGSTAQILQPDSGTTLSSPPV

| Compound | IC50 ([1]; Homo sapiens, 96 h) | IC50 (VEGFR2 (KDR)) | IC50 (EGFR1 (HER-1)) | IC50 ([2]; Homo sapiens, A-431, 72 h) | IC50 ([3]; Homo sapiens, SK-BR-3, 72 h) | IC50 ([4]; Homo sapiens, 72 h) | IC50 ([1]; 96 hours) | IC50 ([2]; 72 hours) | IC50 ([3]; 72 hours) | IC50 ([4]; 72 hours) |
| --- | --- | --- | --- | --- | --- | --- | --- | --- | --- | --- |
| C=CC(=O)Nc1cc2c(Nc3cc(Cl)c(Cl)cc3F)ncnc2cc1OCCNC(=O)CC [Example 137, N-[4-(4,5-dichloro-2-fluoro-phenylamino)-7-(2-propionylamino-ethoxy)-quinazolin-6-yl]-acrylamide] | 951 nM | 954 nM | 4 nM | 5 nM | 40 nM | 9580 nM | – | – | – | – |
| C=CC(=O)Nc1cc2c(Nc3ccc(F)c(F)c3F)ncnc2cc1OCC1CCN(C(C)=O)CC1 [Example 7, N-[7-(1-acetyl-piperidin-4-ylmethoxy)-4-(2,3,4-trifluoro-phenylamino)-quinazolin-6-yl]-acrylamide] | 99 nM | 250 nM | 26 nM | 38 nM | 67 nM | 9570 nM | – | – | – | – |
| N-{2-[6-acryloylamino-4-(4-bromo-3-chloro-2-fluoro-phenylamino)-quinazolin-7-yloxy]-ethyl}-4-dimethylamino-butylamide [Example 148] | – | 206 nM | 28 nM | – | – | – | 348 nM | 30 nM | 40 nM | 2320 nM |
| C=CC(=O)Nc1cc2c(Nc3ccc(Br)cc3F)ncnc2cc1OCC1CNC(=O)O1 (stereo not drawn) [Example 91, N-[4-(4-bromo-2-fluoro-phenylamino)-7-(2-oxo-oxazolidin-5-ylmethoxy)-quinazolin-6-yl]-acrylamide] | 696 nM | 587 nM | 17 nM | 15 nM | 335 nM | 2790 nM | – | – | – | – |
| C=CC(=O)Nc1cc2c(Nc3ccc(Br)cc3F)ncnc2cc1OCC1CCN(C(C)=O)CC1 [Example 1, N-[7-(1-acetyl-piperidin-4-ylmethoxy)-4-(4-bromo-2-fluoro-phenylamino)-quinazolin-6-yl]-acrylamide] | 85 nM | 131 nM | 3 nM | 48 nM | 283 nM | 3060 nM | – | – | – | – |
| C=CC(=O)Nc1cc2c(Nc3ccc(Br)cc3F)ncnc2cc1OCCNC(=O)CNC [Example 60, N-{4-(4-bromo-2-fluoro-phenylamino)-7-[2-(2-methylamino-acetylamino)-ethoxy]-quinazolin-6-yl}-acrylamide] | 689 nM | 685 nM | 136 nM | 125 nM | 939 nM | 9570 nM | – | – | – | – |
| C=CC(=O)Nc1cc2c(Nc3ccc(Br)cc3F)ncnc2cc1OCCNC(=O)CCO [Example 67, N-{4-(4-bromo-2-fluoro-phenylamino)-7-[2-(3-hydroxy-propionylamino)-ethoxy]-quinazolin-6-yl}-acrylamide] | 351 nM | 215 nM | 89 nM | 73 nM | 983 nM | 2220 nM | – | – | – | – |
| C=CC(=O)Nc1cc2c(Nc3ccc(Br)cc3F)ncnc2cc1OCCNC(=O)CCN(C)C [Example 61, N-{4-(4-bromo-2-fluoro-phenylamino)-7-[2-(3-dimethylamino-propionylamino)-ethoxy]-quinazolin-6-yl}-acrylamide] | 384 nM | 354 nM | 9 nM | 6 nM | 59 nM | 10000 nM | – | – | – | – |
| C=CC(=O)Nc1cc2c(Nc3ccc(Br)c(Cl)c3F)ncnc2cc1OCCNC(=O)CCOC [Example 150, N-{4-(4-bromo-3-chloro-2-fluoro-phenylamino)-7-[2-(3-methoxy-propionylamino)-ethoxy]-quinazolin-6-yl}-acrylamide] | 358 nM | 278 nM | 21 nM | 22 nM | 242 nM | 9530 nM | – | – | – | – |
| C=CC(=O)Nc1cc2c(Nc3ccc(Br)cc3F)ncnc2cc1OCCNC(=O)C1CCCN1C(C)=O (stereo not drawn) [Example 105, 1-acetyl-pyrrolidine-2-carboxylic acid {2-[6-acryloylamino-4-(4-bromo-2-fluoro-phenylamino)-quinazolin-7-yloxy]-ethyl}-amide] | 654 nM | 654 nM | 25 nM | 30 nM | 100 nM | 6700 nM | – | – | – | – |
| C=CC(=O)Nc1cc2c(Nc3ccc(Br)cc3F)ncnc2cc1OCCNC(=O)N1CCNCC1 [Example 94, piperazine-1-carboxylic acid {2-[6-acryloylamino-4-(4-bromo-2-fluoro-phenylamino)-quinazolin-7-yloxy]-ethyl}-amide] | 694 nM | 698 nM | 698 nM | 739 nM | 2560 nM | 2320 nM | – | – | – | – |
| C=CC(=O)Nc1cc2c(Nc3ccc(Br)cc3F)ncnc2cc1OCC(C)NC(=O)CC (stereo not drawn) [Example 84, N-[4-(4-bromo-2-fluoro-phenylamino)-7-(2-propionylamino-propoxy)-quinazolin-6-yl]-acrylamide] | 113 nM | 94 nM | 26 nM | 34 nM | 71 nM | 10000 nM | – | – | – | – |
| C=CC(=O)Nc1cc2c(Nc3ccc(Br)cc3F)ncnc2cc1OCCNC(=O)N1CCOCC1 [Example 93, morpholine-4-carboxylic acid {2-[6-acryloylamino-4-(4-bromo-2-fluoro-phenylamino)-quinazolin-7-yloxy]-ethyl}-amide] | 269 nM | 197 nM | 36 nM | 46 nM | 53 nM | 10000 nM | – | – | – | – |
| C=CC(=O)Nc1cc2c(Nc3ccc(Br)cc3F)ncnc2cc1OCCNC(=O)C(C)N (stereo not drawn) [Example 173, N-[7-[2-(2-amino-propionylamino)-ethoxy]-4-(4-bromo-2-fluoro-phenylamino)-quinazolin-6-yl]-acrylamide] | 213 nM | 165 nM | 18 nM | 38 nM | 504 nM | 10000 nM | – | – | – | – |
| C=CC(=O)Nc1cc2c(Nc3ccc(Br)cc3F)ncnc2cc1OCCNC(=O)CCN(CC)CC [Example 59, N-{4-(4-bromo-2-fluoro-phenylamino)-7-[2-(3-diethylamino-propionylamino)-ethoxy]-quinazolin-6-yl}-acrylamide] | 204 nM | 198 nM | 44 nM | 45 nM | 111 nM | 10000 nM | – | – | – | – |
| C=CC(=O)Nc1cc2c(Nc3ccc(Br)cc3F)ncnc2cc1OCC1=NCCO1 [Example 109, N-[4-(4-bromo-2-fluoro-phenylamino)-7-(4,5-dihydro-oxazol-2-ylmethoxy)-quinazolin-6-yl]-acrylamide] | 486 nM | 478 nM | 125 nM | 147 nM | 572 nM | 10000 nM | – | – | – | – |
| C=CC(=O)Nc1cc2c(Nc3ccc(Br)cc3F)ncnc2cc1OCCNC(=O)COC [Example 44, N-{4-(4-bromo-2-fluoro-phenylamino)-7-[2-(2-methoxy-acetylamino)-ethoxy]-quinazolin-6-yl}-acrylamide] | 265 nM | 161 nM | 14 nM | 16 nM | 98 nM | 2320 nM | – | – | – | – |
| C=CC(=O)Nc1cc2c(Nc3ccc(Br)cc3F)ncnc2cc1OCCNC(=O)CN1CCOCC1 [Example 103, N-{4-(4-bromo-2-fluoro-phenylamino)-7-[2-(2-morpholin-4-yl-acetylamino)-ethoxy]-quinazolin-6-yl}-acrylamide] | 932 nM | 782 nM | 32 nM | 35 nM | 399 nM | 3670 nM | – | – | – | – |
